Reference: paper PMC5708526, “Targeting secondary protein complexes in drug discovery: studying the druggability and chemical biology of the HSP70/BAG1 complex” (Chemical Communications (Cambridge, England), 2017)

Columns and labels:
[1] = target: T1, TR-HSC70 (aa 4-381) (Homo sapiens, UniProt P11142); assay: Fluorescence polarisation probe KD determination with truncated HSC70; assay type: binding
T1 construct: HSC70-NBD (residues 4 to 381); made in house
Experimental: (§1) To determine the binding affinity of bisaryl FP-probe 11 for HSP72, increasing concentrations of the protein were titrated against a fixed concentration (10 nM) of the FP-probe. […] We speculated that this decrease in apparent KD was due to the slow hydrolysis of the ATP-probe to ADP-ATTO-488 + Pi. Although HSP72 has low intrinsic ATPase activity,[8] the high enzyme concentration could catalyse hydrolysis over the time-frame of the assay, with the initial KD values reflective of the known modest affinity of ATP for HSP70, whilst the final KD value was consistent with the higher affinity ADP ligand.[14] […]
(§2) TRIS Tris(hydroxymethyl)aminomethane
(§3) General Information: Unless otherwise stated the aqueous assay buffer contained 50 mM TRIS base pH 7.4, 150 mM NaCl, 6 mM MgCl2, 1 mM DTT, 0.1% (wt/wt) CHAPS. The assay was conducted using 384 Plus F ProxiPlates (PerkinElmer) with a final assay volume of 10 μL. Plates were centrifuged at 1000 rpm for 1 minute prior to incubation and read using an 2103 Envision Multilable Plate Reader. Excitation and emission wavelengths used for green probes were 480 nm and 535 nm, respectively.
(§4) Fluorescence polarisation was measured in units of millipolarization (mP). […] Data were plotted and analysed using GraphPad Prism 6, graphical data represents the mean ± standard error of the mean for a single representative experiment. […]

[2] = target: T2, TR-HSP72 (aa 3-382) (Homo sapiens, UniProt P0DMV8); assay: Fluorescence polarisation probe KD determination with truncated HSP72; assay type: binding
T2 construct: Truncated HSP72-NBD (residues 3 to 382); made in house
T2 sequence (P0DMV8 3-382): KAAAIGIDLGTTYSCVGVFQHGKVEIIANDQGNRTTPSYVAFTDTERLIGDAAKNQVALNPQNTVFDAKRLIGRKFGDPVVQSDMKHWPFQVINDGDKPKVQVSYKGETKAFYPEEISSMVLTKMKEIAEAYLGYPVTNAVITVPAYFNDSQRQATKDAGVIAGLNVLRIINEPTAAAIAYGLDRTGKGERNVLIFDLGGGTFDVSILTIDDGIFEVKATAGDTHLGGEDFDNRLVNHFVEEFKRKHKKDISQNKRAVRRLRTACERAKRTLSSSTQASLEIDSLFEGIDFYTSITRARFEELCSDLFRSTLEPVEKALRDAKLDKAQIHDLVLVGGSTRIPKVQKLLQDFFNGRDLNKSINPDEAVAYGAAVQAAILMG
Experimental: as §1, §2, §3, §4

T1 sequence (P11142 4-381): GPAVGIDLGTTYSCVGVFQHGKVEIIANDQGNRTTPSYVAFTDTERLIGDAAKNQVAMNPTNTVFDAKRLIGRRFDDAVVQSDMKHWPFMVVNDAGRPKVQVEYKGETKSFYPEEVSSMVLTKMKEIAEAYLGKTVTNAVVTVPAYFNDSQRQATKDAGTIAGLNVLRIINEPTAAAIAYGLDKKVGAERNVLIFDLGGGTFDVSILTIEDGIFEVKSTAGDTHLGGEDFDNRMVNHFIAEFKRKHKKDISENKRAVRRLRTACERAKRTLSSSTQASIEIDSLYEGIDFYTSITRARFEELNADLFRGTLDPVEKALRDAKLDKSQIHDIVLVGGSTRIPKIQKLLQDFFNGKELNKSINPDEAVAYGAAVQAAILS

Structure (SMILES): CN(CCCC(=O)NCCCCCCNc1ncnc2c1nc(NCc1ccc3ncccc3c1)n2[C@@H]1O[C@H](COCc2ccc(C(F)(F)F)cc2)[C@@H](O)[C@H]1O)C(=O)c1ccccc1-c1c2ccc(=N)c(S(=O)(=O)O)c-2oc2c(S(=O)(=O)O)c(N)ccc12 [compound 11]
- Kd ([1]; TR-HSC70): 117 nM
- pKD ([1]; TR-HSC70, n = 2): 6.93
- Kd [2]: 50 nM
- pKD [2]: 7.32
